# Measured values published in patent US20090291857A1, “METHODS TO IDENTIFY INHIBITORS OF THE UNFOLDED PROTEIN RESPONSE” (THE BOARD OF TRUSTEES OF THE LELAND STANFORD JUNIOR …, priority 2006, published 2009).
# Read-outs that look alike come from different tables or passages of the source.
# Legend:
# [1] = system: IRE1α/XBP-1 pathway (XBP1-luciferase reporter); assay: High throughput XBP-luciferase reporter screen, tunicamycin/thapsigargin induced (HTS and IRE IC50); type: cell-based, human; details: Homo sapiens; for inhibition at 20 µM: Conc 20 uM
# Experimental: Specifically, HT1080 fibrosarcoma cells stably transfected with the unspliced XBP-1-luciferase reporter construct (3000/well) were plated onto a solid white 384 well microplate with a multidrop dispenser (40 μL per well). The plates were then placed into an automated incubator. After 24 hours of growth, a mixture of tunicamycin (1 μg/ml) and thapsigargin (100 nM) inducers were added, and candidate compounds were then added to the plates. After 24 hours, luciferase reagent (10 μl) was added to each well and the plates were read in a Molecular Devices Analyst GT (0.2 second read per well).
# As described above in Example 2, HT1080 fibrosarcoma cells stably expressing the XBP-luciferase reporter were plated in a 384 well microplate (4000 cells/well). After 24 hours, cells were treated with a mixture of tunicamycin (4 μg/ml) and thapsigargin (0.4 μM), followed by the addition of one compound per well (10 μM). We screened a total of 66,000 diverse molecules obtained from Specs, Chembridge and ChemRX. Twenty-four hours post-induction, BriteGlo luciferase substrate (10 μl) was added to each well and the signal intensity determined in a plate reader (0.2 s read per well). […] We retested 431 compounds from the initial screen, and selected 58 compounds for additional analysis, including calculation of IC50 values and inhibition of a CMV-luciferase reporter.
# A. XBP-luciferase reporter construct. Firefly luciferase was inserted downstream of the IRE1α splice site in human XBP-1 to enable the conditional translation of luciferase under ER stress in an IRE1α-dependent manner. B. Selective inhibition of the XBP-luciferase reporter by irestatin 9389. HT1080 human fibrosarcoma cells stably expressing the XBP-luciferase reporter or CMV-luciferase were cultured in the presence of Tm (4 μg/ml) and Tg (0.4 μM) and irestatin 9389 at the indicated concentrations. After 24 hours, luciferase activity was analyzed in an automated plate reader. For each cell line, values are expressed as the percent inhibition of the median for Tm/Tg-treated wells, corrected for background. C. Structure of irestatin 9389. D. XBP-luciferase reporter assay. HT1080 cells stably expressing the XBP-luciferase reporter were exposed to Tm (4 μg/ml) for 24 hours or hypoxia (0.1% oxygen) for 24 or 48 hours, in the presence of DMSO or irestatin 9389 (1 μM) as indicated. Values are expressed as the fold increases over uninduced levels. E. 5X-UPRE reporter assay. HT1080 cells were co-transfected with 5X-UPRE luciferase and SV40-beta-gal reporter plasmids, followed by exposure to Tm or hypoxia as in D. For each condition, luciferase activity is normalized to beta-galactosidase expression levels as an internal control for transfection efficiency. F. Western immunoblot analysis of XBP-1s. HT1080 cells were left untreated (lane 2) or exposed to Tm (4 μg/ml) for 20 hours in the presence of DMSO vehicle (lane 1) or the indicated irestatins (2 μM; lanes 3-6). Cell lysates were resolved by SDS-PAGE and immunoblotting using antisera specific for XBP-1s (top panel) or actin and GAPDH (bottom panel) as loading controls. […] HT1080 cells were treated with DMSO or exposed to irestatin 9389 (2 μM; lane 3) in normoxia (N) or under hypoxia for 24 hours (H 24; lanes 2,3). Cells were harvested, lysed, and analyzed by immunoblotting with antisera specific for HIF-1α (top), XBP-1s (middle) or actin (bottom). H. Northern blot analysis of XBP-1s transcription targets. Cells were exposed to Tm (4 μg/ml) or hypoxia for 24 hours (H 24) in the absence or presence of irestatin 9389 (2 μM). Total RNA was analyzed by Northern blotting using radiolabeled probes specific for P58^IPK or DER-1. Total rRNA is shown as loading control.
# As described above, a HT1080 fibrosarcoma cell line stably expressing a fusion of unprocessed XBP-1 inserted upstream of firefly luciferase has been developed to identify small molecule inhibitors of the IRE1α/XBP-1 signaling module. […]
# XBP-1 splicing = assay: Bioluminescence imaging of XBP-1 splicing in HT1080 XBP-1s-luciferase tumors in nude mice; type: in vivo; details: IP, 50 mg/kg
# Experimental: Several nude mice were implanted with HT1080 cells stably expressing a XBP-1s-luciferase construct and XBP-1 activation was examined using bioluminescence imaging. Imaging was performed using the In Vivo Imaging System (IVIS, Xenogen Corporation, Alameda, Calif.) in the Stanford Center for Innovation in In Vivo Imaging (SCI3). This device consists of a cooled CCD camera mounted on a light-tight specimen chamber. In these experiments, two different potential irestatins (3281 & 5500) were injected IP into nude mice implanted with HT1080 stably expressing XBP1s-luciferase (described in FIG. 2A).
# As shown in FIGS. 9A-D, XBP-1 splicing activity was undetectable 8 hrs after irestatin 3281 injection and became detectable within 16 hrs later.
# [2] = 24 h, inhibition of XBP1-luciferase reporter, read-out: Activity Class
# [3] = HTS, Conc 10 uM, read-out: % Inh
SMILES,"inhibition at 10 µM [1, 2] [%]","inhibition at 10 µM [1, 3] [%]",also measured
N#Cc1cc2c(nc1SCC(=O)Nc1nccs1)CCC2 [Compound 3371],–,–,"inhibition at 20 µM ([1]; IRE IC50 assay): 72.6%; IC50 ([1]; IRE IC50 assay, each value a separate calculation, estimate, not accurate below 10 nM, read-out: IC50): 13.9 µM"
COCc1cc(C)nc(SCC(=O)Nc2nc(-c3ccc(Br)cc3)cs2)c1C#N [Compound 0040],< 10,-4.6,–
COc1ccc(CNC(=O)c2sc3nc4c(c(C(F)(F)F)c3c2N)CCC4)cc1 [Compound 1740],10 to 30,–,–
N#Cc1c(C(F)(F)F)cc(-c2ccccc2)nc1SCC(=O)Nc1nccs1 [Compound 6392],< 10,2.7,–
COc1ccccc1NC(=O)CSc1nc2c(c(C(F)(F)F)c1C#N)CCC2 [Compound 4950],< 10,-6.2,–
N#Cc1c(C(F)(F)F)cc(-c2ccncc2)nc1SCC(=O)Nc1nccs1 [Compound 0069],< 10,-5.4,–
COCc1cc(C)nc(SCC(=O)Nc2nc(-c3ccccc3)c(C)s2)c1C#N [Compound 9766],10 to 30,26.7,–
Cc1csc(NC(=O)c2sc3nc4c(c(C(F)(F)F)c3c2N)CCC4)n1 [Compound 5500],75 to 100,–,inhibition at 20 µM ([1]; IRE IC50 assay): 100%; effect on XBP-1 splicing at the time points assayed (XBP-1 splicing): did not have any affect on XBP-1 splicing; toxicity (XBP-1 splicing): no apparent toxicity
COCc1cc(C)nc(SCC(=O)Nc2nc(-c3ccccc3)cs2)c1C#N [Compound 9787],< 10,-122,–
COc1ccc(NC(=O)CSc2nc3c(c(C(F)(F)F)c2C#N)CCC3)c(OC)c1 [Compound 9388],< 10,-40.8,–
Nc1c(C(=O)Nc2ccccn2)sc2nc(-c3cccs3)cc(C(F)(F)F)c12 [Compound 1567],< 10,-41.2,–
N#Cc1cccc(NC(=O)c2sc3nc4c(c(C(F)(F)F)c3c2N)CCC4)c1 [Compound 8878],30 to 75,–,–
CC(=O)C1=C(C)NC(SCC(=O)Nc2nc3ccccc3s2)=C(C#N)C1c1cccnc1 (stereo not shown) [Compound 2853],10 to 30,26.5,–
Cc1cc(C(F)(F)F)c(C#N)c(SCC(=O)Nc2nccs2)n1 [Compound 8233],< 10,-59.6,–
Cc1cccc(NC(=O)c2sc3nc(C)cc(C(F)(F)F)c3c2N)n1 [Compound 2750],10 to 30,11.7,–
Cc1cc(C(F)(F)F)c2c(N)c(C(=O)Nc3cccc(C(F)(F)F)c3)sc2n1 [Compound 3290],< 10,-30.3,–
COc1ccc(CNC(=O)c2sc3nc4c(c(C(F)(F)F)c3c2N)CCC4)cc1OC [Compound 2399],10 to 30,13.3,–
CC(=O)N1CCc2nc3sc(C(=O)Nc4cccc(C#N)c4)c(N)c3c(C(F)(F)F)c2C1 [Compound 1491],10 to 30,–,–
N#Cc1sc2nc(-c3cccs3)cc(C(F)(F)F)c2c1N [Compound 6068],< 10,–,"inhibition at 12.3 µM ([1]; HTS, Conc 12.3 uM): 5.8%"
Cc1csc(NC(=O)c2sc3nc4c(c(C(F)(F)F)c3c2N)CCCC4)n1 [Compound 4335],30 to 75,–,"inhibition at 12 µM ([1]; IRE IC50 assay, Conc 12 uM): 70.4%; inhibition at 20 µM ([1]; IRE IC50 assay): 67.4%"
COCc1cc(C)nc(SCC(=O)Nc2nc(-c3ccc(C)cc3)cs2)c1C#N [Compound 9668],10 to 30,19,–
N#Cc1cc2c(nc1SCC(=O)Nc1nccs1)CCCCC2 [Compound 3398],< 10,-56.2,–
N#Cc1c(C(F)(F)F)cc(-c2cccs2)nc1SCC(=O)Nc1ccc(C(N)=O)cc1 [Compound 9165],< 10,-6.5,–
N#Cc1c(C(F)(F)F)cc(-c2cccs2)nc1SCC(=O)Nc1nccs1 [Compound 6451],< 10,-55.6,–
N#Cc1c(C(F)(F)F)cc(-c2cccs2)nc1SCC(=O)Nc1ccccn1 [Compound 4645],< 10,-8.3,–
CCN(CC)C(=O)CSc1nc2c(c(C(F)(F)F)c1C#N)CCC2 [Compound 8920],10 to 30,25.7,–
